Results: patent US5686458A, “Quinazoline deriviates for treating peptic ulcer” (Yuhan Corporation, priority 1992, dated 1997)
Counter-ions that a name gives are not always drawn.

Columns and labels:
[1] = molecular target: T1, Proton Pump (H^+ /K^+ ATPase) (Oryctolagus cuniculus, UniProt P27112); test: Inhibition of Proton Pump (H+/K+ ATPase) Activity, in vitro enzyme reaction (Experiment 1); format: biochemical, New Zealand white rabbit; conditions: for Effect ratio: IC50 of Omeprazole / IC50 of test compound; for IC50: K+-stimulated H+/K+ ATPase activity, rabbit gastric microsomes, pH 7.2, 37° C., 15 min prereaction, 30 min reaction, read-out: IC50 of test compound, inhibition (50%) of the proton pump activity
T1 construct: The microsomes thus obtained were used as an enzyme source of the in vitro enzyme reaction study of proton pump; from tissue; host or cells: rabbit stomach, mucosal scrapings, microsomes (180,000 g pellet)
Procedure: A New Zealand white rabbit was killed by blowing its head and the stomach was taken out. The contents of the stomach were removed and the stomach walls were washed with was saline. The inner wall of the stomach was scratched out with a slide glass and the cells thus obtained were homogenized in 0.25M sucrose buffer by means of a Teflon-glass homogenizer. The homogenous solution was centrifuged at 10,000 g for 10 minutes and the supernatant was further centrifuged at 20,000 g for 20 minutes. The supernatant thus obtained was centrifuged at an ultra-high speed of 180,000 g for 1 hour. The pellets precipitated were collected by discarding the supernatant and suspended in 50 mM Tris-HCl buffer having pH 7.2. The suspension was dialyzed twice with the same buffer(of 1,000 times volume) for 3 hours and stored into liquid nitrogen.
The above centrifugation and dialysis were carried out at 4° C. The microsomes thus obtained were used as an enzyme source of the in vitro enzyme reaction study of proton pump.
The inhibitory effects of proton pump activity by the compounds of the present invention were measured by the in vitro enzyme reaction study. The proton pump activity stimulated by Mg^++ was used as a negative comparative group, and the activity stimulated by Mg^++ and K^+ was used as a positive comparative group. The comparative compound was omeprazole.
Test tubes were divided into 4 groups: Group 1 as negative comparative group(n=3), Group 2 as positive comparative group(n=3), Group 3(n=5) to be administered with the compound of the present invention and Group 4(n=5) to be administered with the comparative compound. The inhibitory effects of proton pump activity of Groups 3 and 4 were measured by employing the compound prepared in Example 34 and omeprazole, respectively, each of which was dissolved in dimethylsulfoxide at 5 different concentrations.
To each of Groups 1, 2, 3 and 4, were added 0.1 ml of magnesium chloride(40 mM) dissolved in 50 mM Tris-HCl buffer (pH 7.2) and […] of the enzyme source prepared in Experiment 1-1. Then, 0.1 ml of potassium chloride(500 mM) and 0.1 ml of ammonium chloride(100 mM) dissolved in 50 mM Tris-HCl buffer(pH 7.2) were added to all groups except for Group 1.
0.1 ml of dimethylsulfoxide was added to each of Groups 1 and 2; and to Group 3 was added 0.01 ml of the solution in which the compound prepared in Example 34 was dissolved in dimethylsulfoxide at 5 different concentrations. To Group 4, 0.01 ml of the solution prepared by dissolving omprazole in dimethylsulfoxide at 5 different concentrations(37.6, 21.4, 12.2, 7.0 and 4.0 μM) was added. 50 mM Tris-HCl buffer was added thereto so as to make the total volume 0.4 ml.
Thereafter, the test tubes of each Group were placed at 37° C. for 15 minutes for the prereaction. 0.1 ml of ATP solution(33.3 mM), which was prepared by adding Tris-ATP 50 mM to Tris-HCl buffer having pH 7.2, was added until the reaction volume became 0.5 ml. The final concentrations of MgCl2, KCl, NH4 Cl, ATP, enzyme and Tris-HCl were 8 mM, 100 mM, 20 mM, 6.7 mM, 100μg/ml and 50 mM, respectively. After the reaction was carried out at 37° C. for 30 minutes, 25% cold trichloroacetic acid was added to terminate the enzyme reaction. The released inorganic phosphate was measured by an automatic analyzer(SBA 300, Gilford).
The difference between Group 1 and Group 2 represents the proton pump activity activated by K^+ only. The inhibition percentages of Groups 3 and 4 were calculated from Litchfield-wilcoxon equation[see J. Pharmacol. Exptl. Ther. 96, 99(1949)]. The concentrations of the test compounds which inhibit 50% of the proton pump activity are represented as IC50 in Table 1.

gastric secretion = test: Inhibition of Gastric Secretion, pylorus-ligated rats (Experiment 2); format: in vivo, Sprague-Dawley rats
Procedure: In accordance with the method disclosed in Shay, H., et al., Gastroenterology 5, 43-61(1945), Experiment 2 was carried out.
Sprague-Dawley rats having a body weight of 170±10 g were divided into 3 groups(n=5) and deprived of food for 24 hours before the experiment with free access to water. Under ether anesthesia, the abdomen was incised, and the pylorus was ligated. As a comparative group, Group 1 was administered intraduodenally in a volume of 0.5 ml/200 g of 30% aqueous polyethylene glycol 400 solution. Groups 2 and 3 were administered intraduodenally with the compound of Example 34 and omeprazole, respectively, each of which was suspended in 30% aqueous polyethylene glycol 400 solution at a concentration of 20 mg/kg. After closing the abdominal cavity, the rats were placed for 5 hours and then killed by cervical dislocation. The stomach was extracted to obtain gastric juice.
The gastric juice was centrifuged at 1,000 g to remove precipitates. The amount and acidity of the gastric juice were measured. Relative volumes, relative acid concentrations and relative acid outputs of the test compounds were calculated from equations(I), (II) and (III) and the results are shown in Table 2.
(I) = the average amount of gastric juice of Group 1 - the
average amount of gastric juice of Group 2)/(the average
amount of gastric juice of Group 1 - the average amount
of gastric juice of Group 3)
Relative acid concentration
(II) = (the average acidity of Group 1 - the average
acidity of Group 2)/(the average acidity of Group 1 - the average
(III) = (the total amount of acid output of Group 1 - the
total amount of acid output of Group 2)/(the total amount of acid
output of Group 1 - the total amount of acid output of Group

[2] = relative to omeprazole (equation III), 20 mg/kg intraduodenally, pylorus-ligated rats, 5 hours

T1 sequence (P27112 whole entry): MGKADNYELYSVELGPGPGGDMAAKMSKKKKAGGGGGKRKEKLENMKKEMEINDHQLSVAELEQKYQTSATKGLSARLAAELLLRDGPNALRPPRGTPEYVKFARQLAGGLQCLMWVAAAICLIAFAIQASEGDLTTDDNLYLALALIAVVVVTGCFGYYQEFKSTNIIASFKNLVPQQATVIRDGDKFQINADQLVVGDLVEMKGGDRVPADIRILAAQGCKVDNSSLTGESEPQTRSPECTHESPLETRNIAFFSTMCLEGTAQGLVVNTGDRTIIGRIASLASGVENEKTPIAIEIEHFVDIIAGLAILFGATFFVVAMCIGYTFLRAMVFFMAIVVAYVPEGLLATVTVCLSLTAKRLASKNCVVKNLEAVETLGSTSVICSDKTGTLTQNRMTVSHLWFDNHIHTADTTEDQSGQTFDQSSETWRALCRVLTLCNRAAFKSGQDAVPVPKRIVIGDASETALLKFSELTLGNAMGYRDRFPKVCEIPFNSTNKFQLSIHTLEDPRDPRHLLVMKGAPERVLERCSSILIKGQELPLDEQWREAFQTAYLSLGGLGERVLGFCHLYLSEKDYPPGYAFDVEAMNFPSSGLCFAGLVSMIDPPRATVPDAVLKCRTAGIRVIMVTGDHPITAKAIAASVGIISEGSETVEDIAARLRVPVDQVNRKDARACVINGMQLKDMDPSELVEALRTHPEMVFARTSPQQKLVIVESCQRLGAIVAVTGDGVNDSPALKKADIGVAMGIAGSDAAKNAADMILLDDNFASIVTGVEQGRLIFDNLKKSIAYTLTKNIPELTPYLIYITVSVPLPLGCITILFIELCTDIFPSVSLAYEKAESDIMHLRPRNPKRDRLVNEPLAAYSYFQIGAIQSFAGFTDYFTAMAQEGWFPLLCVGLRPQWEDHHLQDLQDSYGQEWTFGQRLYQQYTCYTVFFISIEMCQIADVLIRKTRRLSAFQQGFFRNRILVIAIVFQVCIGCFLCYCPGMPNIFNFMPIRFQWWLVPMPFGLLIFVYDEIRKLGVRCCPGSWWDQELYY
T1 sequence (P18597 whole entry partner): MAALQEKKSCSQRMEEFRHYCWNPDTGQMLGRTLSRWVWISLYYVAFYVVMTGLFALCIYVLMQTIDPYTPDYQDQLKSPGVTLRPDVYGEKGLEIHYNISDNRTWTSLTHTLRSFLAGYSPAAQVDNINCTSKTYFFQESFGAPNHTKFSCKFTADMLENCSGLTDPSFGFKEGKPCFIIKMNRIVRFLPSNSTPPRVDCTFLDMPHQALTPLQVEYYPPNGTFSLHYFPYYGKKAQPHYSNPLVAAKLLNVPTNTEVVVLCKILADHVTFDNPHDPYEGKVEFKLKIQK

Row | Structure (SMILES) | Effect ratio [1] | IC50 [1] | Relative Acid Output (gastric secretion; [2]) | Relative Acid Output (gastric secretion; intraduodenal, 20 mg/kg, 5 h)
1 | Cc1cc(F)ccc1Nc1nc(N2CCc3ccccc3C2C)c2cccc(OCCO)c2n1 (stereo not drawn) [Example 37, 8-(2-Hydroxyethyloxy)-2-(4-Fluoro-2-Methylphenylamino)-4-(1-Methyl-1,2,3,4-Tetrahydroisoquinoline-2-Yl)Quinazoline] | ~ 0.60 | ~12.5 µM | 0.37 | 
2 | COc1cccc2c(N3CCc4ccccc4C3C(F)(F)F)nc(Nc3ccc(F)cc3C)nc12.Cl (stereo not drawn) [Example 42, 2-(4-Fluoro-2-Methylphenyl-Amino)-8-Methoxy-4-(1-Trifluoromethyl-1,2,3,4-Tetrahydroisoquinoline-2-Yl)Quinazoline Hydrochloride] | < 0.18 | 12.5 µM | 0.42 | 
3 | COc1cccc2c(N3CCc4ccccc4C3CF)nc(Nc3ccc(F)cc3)nc12.Cl (stereo not drawn) [Example 43, 2-(4-Fluorophenylamino)-8-Methoxy-4-(1-Fluoromethyl-1,2,3,4-Tetrahydroisoquinoline-2-Yl)Quinazoline Hydrochloride] | < 0.97 | > 12.5 µM | 0.76 | 
4 | COc1cccc2c(N3CCc4ccccc4C3CF)nc(Nc3ccc(F)cc3C)nc12.Cl (stereo not drawn) [Example 44, 2-(4-Fluoro-2-Methylphenyl-Amino)-8-Methoxy-4-(1-Fluoromethyl-1,2,3,4-Tetrahydroisoquinoline-2-Yl)Quinazoline Hydrochloride] | ~ 0.97 | ~12.5 µM | 0.75 | 
5 | CCC1c2ccccc2CCN1c1nc(Nc2ccc(F)cc2)nc2c(OC)cccc12.Cl (stereo not drawn) [Example 45, 8-Methoxy-2-(4-Fluorophenyl-Amino)-4-(1-Ethyl-1,2,3,4-Tetrahydroisoquinoline-2-Yl) Quinazoline Hydrochloride] | 0.46 | 8.9 µM |  | -0.06
6 | COc1cccc2c(N3CCc4ccccc4C3C3CC3)nc(Nc3ccc(F)cc3C)nc12.Cl (stereo not drawn) [Example 47, 2-(4-Fluoro-2-Methylphenyl-Amino)-8-Methoxy-4-(1-cyclopropyl-1,2,3,4-Tetrahydroisoquinoline-2-Yl)Quinazoline Hydrochloride] | 0.49 | ~25 µM | 0.33 | 
7 | COc1cccc2c(N3Cc4ccccc4CC3C)nc(Nc3ccc(F)cc3)nc12.Cl (stereo not drawn) [Example 48, 2-(4-Fluorophenylamino)-8-Methoxy-4-(3-Methyl-1,2,3,4-Tetrahydroisoquinoline-2-Yl) Quinazoline Hydrochloride] | ~ 0.25 | ~25 µM | 0.76 | 
8 | COc1cccc2c(N3Cc4ccccc4CC3C)nc(Nc3ccc(F)cc3C)nc12.Cl (stereo not drawn) [Example 49, 2-(4-Fluoro-2-Methylphenyl-Amino)-8-Methoxy-4-(3-Methyl-1,2,3,4-Tetrahydroisoquinoline-2-Yl)Quinazoline Hydrochloride] | > 0.25 | > 25 µM | 0.42 | 

These reach a lower IC50 [1]. Values come first.

Row | Effect ratio [1] | IC50 [1] | Structure (SMILES) | Relative Acid Output (gastric secretion; [2]) | Relative Acid Output (gastric secretion; intraduodenal, 20 mg/kg, 5 h)
9 | 1.26 | 7.5 µM | COc1cccc2c(N3CCc4cccc(C)c4C3C)nc(Nc3ccc(F)cc3)nc12.Cl (stereo not drawn) [Example 52, 2-(4-Fluorophenylamino)-8-Methoxy-4-(1,8-Dimethyl-1,2,3,4-Tetrahydroisoquinoline-2-Yl)Quinazoline Hydrochloride] | 0.79 | 
10 | 1.21 | 6.12 µM | COc1cccc2c(N3CCc4ccccc4C3(C)C)nc(Nc3ccc(F)cc3C)nc12 [Example 51, 2-(4-Fluoro-2-Methylphenyl-1-Amino)-8-Methoxy-4-(1,1-Dimethyl-1,2,3,4-Tetrahydroisoquinoline-2-Yl)Quinazoline Hydrochloride] | 0.82 | 
11 | 1.22 | 6.05 µM | COc1cccc2c(N3CCc4ccccc4C3(C)C)nc(Nc3ccc(F)cc3)nc12.Cl [Example 50, 2-(4-Fluorophenylamino)-8-Methoxy-4-(1,1-Dimethyl-1,2,3,4-Tetrahydroisoquinoline-2-Yl)Quinazoline Hydrochloride] | 0.82 | 
12 | 0.68 | ~6 µM | CCC1c2ccccc2CCN1c1nc(Nc2ccc(F)cc2C)nc2c(OC)cccc12.Cl (stereo not drawn) [Example 46, 8-Methoxy-2-(2-Methyl-4-Fluoro-Phenylamino)-4-(1-Ethyl-1,2,3,4-Tetrahydroisoquinoline-2-Yl)Quinazoline Hydrochloride] | 0.11 | 
13 | 0.70 | 4 µM | CSCOc1cccc2c(N3CCc4ccccc4C3C)nc(Nc3ccc(F)cc3C)nc12 (stereo not drawn) [Example 39, 2-(4-Fluoro-2-Methylphenyl-Amino-8-(Methylthiomethyloxy)-4-(1-Methyl-1,2,3,4-Tetrahydroisoquinoline-2-Yl)Quinazoline Hydrochloride] | 0.57 | 
14 | 2.00 | 3.8 µM | COc1cccc2c(N3CCc4ccccc4C3C)nc(N(C)c3ccc(F)cc3)nc12.Cl (stereo not drawn) [Example 41, 8-Methoxy-2-(4-Fluoro-N-methyl-Phenylamino)-4-(1-Methyl-1,2,3,4-Tetrahydroisoquinoline-2-Yl)Quinazoline Hydrochloride] | 0.48 | 
15 | 4.75 | 2 µM | COc1cccc2c(N3CCc4cccc(C)c4C3C)nc(Nc3ccc(F)cc3C)nc12.Cl (stereo not drawn) [Example 53, 2-(4-Fluoro-2-Methylphenyl-Amino)-8-Methoxy-4-(1,8-dimethyl-1,2,3,4-Tetrahydroisoquinoline-2-Yl)Quinazoline Hydrochloride] | 0.92 | 
16 | 8.15 | 1.3 µM | COc1cccc2c(N3CCc4ccccc4C3C)nc(N(C)c3ccccc3)nc12.Cl (stereo not drawn) [Example 40, 8-Methoxy-2-(N-Methylphenyl-Amino)-4-(1-Methyl-1,2,3,4-Tetrahydroisoquinoline-2-Yl) Quinazoline Hydrochloride] | 0.82 | 
17 | 1.67 | 1.2 µM | CCOc1cccc2c(N3CCc4ccccc4C3C)nc(Nc3ccc(F)cc3C)nc12.Cl (stereo not drawn) [Example 38, 2-(4-Fluoro-2-Methylphenyl-Amino)-8-Ethoxy-4-(1-Methyl-1,2,3,4-Tetrahydroisoquinoline-2-Yl)Quinazoline Hydrochloride] | 0.83 | 
